Data reported in the supplement of paper PMC10307832.

What was measured:
Assay in all cases: relative viability (nuclei count vs DMSO), 5 days (fraction); higher = more cells survive
Bortezomib + Vorinostat = compound: CC(C)C[C@H](NC(=O)[C@H](Cc1ccccc1)NC(=O)c1cnccn1)B(O)O [Bortezomib] + O=C(CCCCCCC(=O)Nc1ccccc1)NO [Vorinostat] (partner 1 µM)
In short: (§1)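 One day after seeding in 1536-well plates, lung cancer cell lines were dosed by pin tool. Dosing was either single-drug or a fixed anchor-drug dose plus five library-drug doses (not always all listed) in √10 steps. After 5 days, nuclei were stained in one fix-and-stain step and counted on 4× images, and relative viability is the nuclei count of treated wells over that of vehicle wells, given as the median of duplicate plates.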

Bortezomib + Decitabine = compound: CC(C)C[C@H](NC(=O)[C@H](Cc1ccccc1)NC(=O)c1cnccn1)B(O)O [Bortezomib] + Nc1ncn([C@H]2C[C@H](O)[C@@H](CO)O2)c(=O)n1 [Decitabine] (partner 2 µM)
In short: as §1

[1] = compound: CC1=CC(=NN1)NC2=CC(=NC(=N2)/C=C/C3=CC=CC=C3)N4CCN(CC4)C + Cc1nc(NC(=O)N2CCC[C@H]2C(N)=O)sc1-c1ccnc(C(C)(C)C(F)(F)F)c1 [Alpelisib] (partner 2 µM)
In short: as §1

Obatoclax + Bortezomib = compound: COC1=CC(c2cc3ccccc3[nH]2)=N/C1=C\c1[nH]c(C)cc1C [Obatoclax] + CC(C)C[C@H](NC(=O)[C@H](Cc1ccccc1)NC(=O)c1cnccn1)B(O)O [Bortezomib] (partner 0.002 µM)
In short: as §1

| Cell Line | relative viability (Bortezomib + Vorinostat; first compound 0.0002 µM) | relative viability (Bortezomib + Vorinostat; first compound 0.000632 µM) | relative viability (Bortezomib + Vorinostat; first compound 0.002 µM) | relative viability (Bortezomib + Vorinostat; first compound 0.006325 µM) | relative viability (Bortezomib + Vorinostat; first compound 0.02 µM) | relative viability (Bortezomib + Decitabine; first compound 0.0002 µM) | relative viability (Bortezomib + Decitabine; first compound 0.000632 µM) | relative viability (Bortezomib + Decitabine; first compound 0.002 µM) | relative viability (Bortezomib + Decitabine; first compound 0.006325 µM) | relative viability (Bortezomib + Decitabine; first compound 0.02 µM) | relative viability ([1]; first compound 0.08 µM) | relative viability ([1]; first compound 0.253 µM) | relative viability ([1]; first compound 0.8 µM) | relative viability ([1]; first compound 2.53 µM) | relative viability ([1]; first compound 8 µM) | relative viability (Obatoclax + Bortezomib; first compound 0.01 µM) | relative viability (Obatoclax + Bortezomib; first compound 0.03162 µM) | relative viability (Obatoclax + Bortezomib; first compound 0.1 µM) | relative viability (Obatoclax + Bortezomib; first compound 0.3162 µM) | relative viability (Obatoclax + Bortezomib; first compound 1 µM) |
| --- | --- | --- | --- | --- | --- | --- | --- | --- | --- | --- | --- | --- | --- | --- | --- | --- | --- | --- | --- | --- |
| LC-2-ad | 0.74 | 0.68 | 0.665 | 0.209 | 0.185 | 0.73 | 0.81 | 0.931 | 0.516 | 0.225 | 0.861 | 0.781 | 0.714 | 0.0868 | 0.0702 | 0.979 | 0.98 | 0.98 | 0.785 | 0.339 |
| LCLC-97TM1 | 0.615 | 0.695 | 0.748 | 0.148 | 0.0598 | 0.245 | 0.238 | 0.21 | 0.0935 | 0.0627 | 0.225 | 0.288 | 0.191 | 0.146 | 0.111 | 0.735 | 0.449 | 0.439 | 0.619 | 0.213 |
| LCLC-103H | 0.791 | 0.773 | 0.827 | 0.359 | 0.236 | 0.66 | 0.727 | 0.68 | 0.274 | 0.221 | 0.917 | 1.01 | 1.07 | 0.804 | 0.441 | 1.01 | 1 | 0.992 | 1.07 | 1.05 |
| LOU-NH91 | 0.88 | 0.816 | 0.413 | 0.313 | 0.359 | 0.805 | 0.82 | 0.41 | 0.373 | 0.322 | 0.68 | 0.816 | 0.762 | 0.61 | 0.404 | 0.531 | 0.435 |  | 0.367 | 0.441 |
| LU99A | 0.479 | 0.427 | 0.533 | 0.464 | 0.152 | 0.841 | 0.88 | 0.885 | 0.825 | 0.202 | 0.459 | 0.514 | 0.324 | 0.157 | 0.129 | 1.12 | 1.13 | 1.03 | 0.357 | 0.224 |
| LXF-289 | 0.732 | 0.734 | 0.896 | 0.0875 | 0.0888 | 0.364 | 0.384 | 0.394 | 0.196 | 0.112 | 1.07 | 1.06 | 0.919 | 0.199 | 0.0577 | 1.01 | 1.01 | 0.999 | 0.958 | 0.847 |
| NCI-H23 | 0.603 |  | 0.495 | 0.132 | 0.0977 | 0.288 |  | 0.312 | 0.162 | 0.163 | 0.55 | 0.859 | 0.704 | 0.265 | 0.12 | 1.03 | 0.873 | 1.13 | 0.804 | 0.762 |
| NCI-H322M | 0.841 | 0.696 | 0.826 | 0.393 | 0.491 | 0.783 | 0.671 | 0.705 | 0.6 | 0.45 | 0.716 | 0.792 | 0.757 | 0.436 | 0.204 | 1.13 | 1.21 | 1.41 | 1.16 | 1.34 |
